Source: patent US9789096B2, “Methods and compositions for selective and targeted cancer therapy” (Board of Regents of the University of Texas System, priority 2013, dated 2017)
Where two headings read alike, the source gives them in different places.

How the values were obtained:
Assay type in all cases: cell-based, human
H1819 = assay: Cell viability dose-response, H1819; details: Homo sapiens; for AC50: NCI-H1819, Table 8, 12-point dose-response starting at 50 micromolar
In short: (§1)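 Viability read as total ATP (Cell Titer Glo) following 4 days' compound exposure, with IC50 derived from dose-response curves. Duplicate 12-point series, top concentration 50 micromolar with 3-fold steps, on cells seeded at 15% confluence in RPMI-1640, 5% FBS, 2 mM L-glutamine.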

H2009 = assay: Cell viability dose-response, H2009; details: Homo sapiens, NCI-H2009; Tables 3 and 4; read-out: IC50 (uM) vs indicated non-small cell lung cancer cell line H2009
In short: (§2)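 Steps: seed cells to 15% confluence in RPMI-1640 supplemented with 5% fetal bovine serum and 2 mM glutamine; add compound across a concentration range; incubate 4 days; measure total ATP with CellTiter-Glo. IC50 is derived from the curve.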

H2073 = assay: Cell viability dose-response, H2073; details: for AC50: NCI-H2073, Table 8, 12-point dose-response starting at 50 micromolar
Experimental: (§3) FIG. 6A. […] Cell viability is plotted vs. compound concentration. Compound was added to cells plated at 15% confluence in 96-well plates in RPMI-1640 media supplemented with 5% Fetal Bovine Serum and 2 mM L-Glutamine. After 4 days of incubation, ATP levels were measured using Cell Titer Glo (Promega). Data are presented as the average of 2 replicates ±SEM.
(§4) Selectivity may be measured by the half maximal inhibitory concentration (IC50), which, as used herein, is a measure of the effectiveness of a compound in killing cells. This quantitative measure indicates how much of a particular compound is needed to kill a particular cell population by half (e.g., as indicated by the amount of ATP). […] The IC50 can be determined by constructing a dose-response curve. The lower the IC50, the higher the potency, and the greater the difference between IC50 values for different cell lines (e.g., sensitive lines vs. insensitive lines, and sensitive lines vs. normal lines) the greater the selectivity. […]
With this information, we synthesized and tested a series of small molecules derived in conception from the oxalamide and chromone scaffold including N-acyl ureas, as shown in Tables 6-8. Each compound was tested in a 12-point dose-response study starting at 50 micromolar and decreasing in 3-fold increments to sub-nanomolar concentrations, in duplicate. Additionally, one or more additional cell line was tested in the same way.

H2122 = assay: Cell viability dose-response, H2122; details: for AC50: NCI-H2122, Table 8, 12-point dose-response starting at 50 micromolar
In short: as §1

HBEC30KT = assay: Cell viability (ATP, Cell Titer Glo, 4 days), HBEC30KT; details: Homo sapiens, Tables 3 and 4; read-out: HBEC30KT IC50
Experimental: as §3, §4

HCC44 = assay: Cell viability dose-response, HCC44; details: Homo sapiens, HCC44, Table 8; 12-point dose-response starting at 50 micromolar
In short: as §2

[1] = NCI-H1819, Tables 3 and 4, read-out: IC50 (uM) vs indicated non-small cell lung cancer cell line H1819
[2] = Homo sapiens, NCI-H2073, Tables 3 and 4, read-out: IC50 (uM) vs indicated non-small cell lung cancer cell line H2073
[3] = Tables 3 and 4, read-out: IC50 (uM) vs indicated non-small cell lung cancer cell line H2073
[4] = Homo sapiens, NCI-H2122, Tables 3 and 4, read-out: IC50 (uM) vs indicated non-small cell lung cancer cell line H2122

| Structure (SMILES) | IC50 (H1819; [1]) [µM] | IC50 (H2073; [2]) [µM] | AC50 (H1819) [µM] | AC50 (H2073; Homo sapiens) [µM] | AC50 (H2122; Homo sapiens) [µM] | IC50 (H2122; [4]) [µM] | other results |
| --- | --- | --- | --- | --- | --- | --- | --- |
| COc1ccc2nc(NS(=O)(=O)CC34CCC(CC3=O)C4(C)C)sc2c1 (stereo not shown) [SW202752] | 166 | 110 | – | – | – | – | IC50 (H2009): 4950 µM |
| O=c1c(Cc2cccnc2)coc2cc(OCc3cnn(-c4ccccc4)c3)ccc12 [SW209203-1] | – | – | 49.5 | 44 | 3.17 | – | – |
| C#CCOc1ccc(C(=O)c2ccc(C(=O)Nc3nc4ccc(OC)cc4s3)cc2)cc1 [SW209049-1] | 21 | – | – | – | – | 0.131 | IC50 (H2073; [3]): 81 µM |
| O=C1/C(=C/c2ccc(F)cc2)COc2cc(OCc3cnn(-c4ccccc4)c3)ccc21 [SW209194-1] | – | – | 49.5 | 49.5 | 0.876 | – | – |
| Nc1ccc(C(=O)Nc2nc3ccccc3s2)cc1 [SW209563-1] | 19.7 | 0.184 | – | – | – | 0.027 | – |
| C#CCOC(=O)Nc1ccc(C(=O)Nc2nc3ccccc3s2)cc1 [SW209168-1] | 40.1 | 39.2 | – | – | – | 0.029 | – |
| C#CCc1coc2cc(OCc3cnn(-c4ccccc4)c3)ccc2c1=O [SW209021-1] | – | – | 49.5 | 49.5 | 0.846 | – | – |
| O=C(Nc1nc2cnccc2s1)c1ccccc1 [SW209562-1] | ≥ 49.5 | 49.5 | – | – | – | ≥ 49.5 | – |
| O=C(Nc1nc2ccccc2s1)c1cccc([N+](=O)[O-])c1 [SW209205-1] | 0.468 | 49.5 | – | – | – | 0.397 | – |
| O=C(CCc1ccc(Br)cc1)Cn1ccnc1 [SW209201-1] | – | – | 49.5 | 49.5 | ≥ 49.5 | – | – |
| Nc1ccc2nc(NC(=O)c3ccc(C(=O)O)cc3)sc2c1 [SW209413-1] | ≥ 49.5 | 49.5 | – | – | – | ≥ 49.5 | – |
| C#CCNC(=O)c1ccc(C(=O)Nc2nc3ccccc3s2)cc1 [SW209082-1] | 45.5 | 45.5 | – | – | – | 0.1 | – |
| O=C1/C(=C/c2ncc[nH]2)COc2cc(OCc3cnn(-c4ccccc4)c3)ccc21 [SW209384-1] | – | – | 15.5 | 9.68 | 14 | – | – |
| O=C1/C(=C/c2ccc(C(F)(F)F)cc2)COc2cc(OCc3cnn(-c4ccccc4)c3)ccc21 [SW209198-1] | – | – | 49.5 | 49.5 | 1.44 | – | – |
| COc1ccc2nc(NC(=O)CCc3ccccc3)sc2c1 [SW202751] | 995 | – | – | – | – | – | IC50 (HBEC30KT): 376 µM |
| COc1ccc2nc(NS(=O)(=O)c3ccc(Br)cc3)sc2c1 [SW166942] | 46.7 | 47.6 | – | – | – | 59.6 | IC50 (H2009): 78.6 µM |
| Nc1cccc(C(=O)Nc2nc3ccccc3s2)c1 [SW209323-1] | 40.3 | 0.816 | – | – | – | 0.099 | – |
| C=CCc1coc2cc(OCc3cnn(-c4ccccc4)c3)ccc2c1=O [SW209022-1] | – | – | 47.1 | 49.5 | 0.323 | – | – |
| O=C(O)c1ccc(C(=O)Nc2nc3ccccc3s2)cc1 [SW209412-1] | ≥ 49.5 | 49.5 | – | – | – | ≥ 49.5 | – |
| O=c1c(Oc2ccccc2F)coc2cc(OCc3cnn(-c4ccccc4)c3)ccc12 [SW043139] | – | – | 50 | 50 | 0.166 | – | AC50 (HCC44): 50 µM |
| Cc1ccccc1/C=C1\COc2cc(OCc3cnn(-c4ccccc4)c3)ccc2C1=O [SW209200-1] | – | – | 49.5 | 49.5 | 0.874 | – | – |
| Cc1ccc(/C=C2\COc3cc(OCc4cnn(-c5ccccc5)c4)ccc3C2=O)cc1 [SW209199-1] | – | – | 39.5 | 36.1 | 43.7 | – | – |
| O=C(c1ccccc1)c1ccc(/C(=N/c2nc3ccc(OCc4ccc(Cl)cc4)cc3s2)OCc2ccc(Cl)cc2)cc1 [SW211559-1] | 0.9 | 0.165 | – | – | – | 0.086 | – |
| O=C(Nc1nc2ccccc2[nH]1)c1ccc([N+](=O)[O-])cc1 [SW209206-1] | ≥ 49.5 | 49.5 | – | – | – | ≥ 49.5 | – |

| Structure (SMILES) | IC50 (H1819; [1]) [µM] | IC50 (H2073; [2]) [µM] | AC50 (H1819) [µM] | AC50 (H2073; Homo sapiens) [µM] | AC50 (H2122; Homo sapiens) [µM] | IC50 (H2122; [4]) [µM] | other results |
| --- | --- | --- | --- | --- | --- | --- | --- |
| O=c1c(Cc2ccc(Cl)nc2)coc2cc(OCc3cnn(-c4ccccc4)c3)ccc12 [SW209382-1] | – | – | 49.5 | 0.244 | 0.325 | – | – |
| COc1ncccc1Cc1coc2cc(OCc3cnn(-c4ccccc4)c3)ccc2c1=O [SW209377-1] | – | – | 49.5 | 0.204 | 0.232 | – | – |
| O=C1c2ccc(OCc3cnn(-c4ccccc4)c3)cc2OCC1Cc1ccccc1 (stereo not shown) [SW209202-1] | – | – | 49.5 | 49.5 | 0.307 | – | – |
| O=c1c(Cc2ccncc2)coc2cc(OCc3cnn(-c4ccccc4)c3)ccc12 [SW209193-1] | – | – | 49.5 | 49.5 | 0.549 | – | – |
| O=c1c(Cc2ccsc2)coc2cc(OCc3cnn(-c4ccccc4)c3)ccc12 [SW209379-1] | – | – | 49.5 | 0.087 | 0.082 | – | – |
| COC(=O)c1ccc(C(=O)Nc2nc3ccc(N)cc3s2)cc1 [SW001296-3] | 28.6 | – | – | – | – | – | IC50 (H2073; [3]): 49.5 µM; IC50 (H2122; Tables 3 and 4, read-out: IC50 (uM) vs indicated non-small cell lung cancer cell line H2122): 18.5 µM |
| O=C1/C(=C/c2c[nH]cn2)COc2cc(OCc3cnn(-c4ccccc4)c3)ccc21 [SW209385-1] | – | – | 18 | 12.2 | ≥ 49.5 | – | – |
| NCCCCCOc1cccc(CC2=CCc3cc(OCc4cnn(-c5ccccc5)c4)ccc3C2=O)c1 [SW209383-1] | – | – | 49.5 | 49.5 | 2.37 | – | – |
| OC(CCc1ccc(Br)cc1)Cn1ccnc1 (stereo not shown) [SW 209089-1] | – | – | 49.5 | 49.5 | ≥ 49.5 | – | – |
| COc1ccc2nc(NS(=O)(=O)c3ccc(C(F)(F)F)cc3)sc2c1 [SW202746] | 36 | 38 | – | – | – | 46.1 | IC50 (H2009): 42.7 µM |
| C#CCOc1ccc(C(=O)c2ccc(NC(=O)C(=O)NCCc3ccccc3)cc2)cc1 [SW211560-1] | – | – | – | – | – | – | IC50 (H1819; NCI-H1819, 12-point dose-response starting at 50 micromolar, 3-fold increments, in duplicate, read-out: toxicity data, H1819): ≥ 49.5 µM; IC50 (H2073; Homo sapiens, NCI-H2073, 12-point dose-response starting at 50 micromolar, 3-fold increments, in duplicate, read-out: toxicity data, H2073): 22.7 µM; IC50 (H2122; Homo sapiens, NCI-H2122, 12-point dose-response starting at 50 micromolar, 3-fold increments, in duplicate, read-out: toxicity data, H2122): ≥ 49.5 µM |
| O=C(Nc1ccc([N+](=O)[O-])cc1F)c1sc2ccccc2c1Cl [SW202552] | – | – | – | – | – | 122 | IC50 (HBEC30KT): 4950 µM |
| Nc1ccc(C(=O)Nc2nc3ccccc3[nH]2)cc1 [SW211566] | ≥ 49.5 | 49.5 | – | – | – | ≥ 49.5 | – |
| O=C1/C(=C/c2cccc(C(F)(F)F)c2)COc2cc(OCc3cnn(-c4ccccc4)c3)ccc21 [SW209197-1] | – | – | 21.8 | 26 | 0.042 | – | – |
| O=c1c(Cc2ccccn2)coc2cc(OCc3cnn(-c4ccccc4)c3)ccc12 [SW209187-1] | – | – | 49.5 | 49.5 | 0.28 | – | – |
| O=c1c(Cc2nccs2)coc2cc(OCc3cnn(-c4ccccc4)c3)ccc12 [SW209380-1] | – | – | 21.2 | 17.7 | 0.352 | – | – |
| O=C1/C(=C/c2ccccc2F)COc2cc(OCc3cnn(-c4ccccc4)c3)ccc21 [SW209196-1] | – | – | 41 | 49.5 | 0.827 | – | – |
| COC(=O)c1ccc(C(=O)Nc2nc3ccccc3s2)cc1 [SW209414-1] | ≥ 49.5 | 49.5 | – | – | – | ≥ 49.5 | – |
| O=C(c1ccccc1)c1ccc(NC(=O)c2nc3ccccc3s2)cc1 [SW209091-1] | 9.03 | 24 | – | – | – | 0.01 | – |
| COC(=O)c1ccc2nc(NC(=O)c3ccc(C(=O)c4ccccc4)cc3)sc2c1 [SW211561-1] | 16.5 | 29.1 | – | – | – | 7.75 | – |
| NC(=O)c1ccc(C(=O)Nc2nc3ccccc3s2)cc1 [SW209411-1] | 3.1 | 27.8 | – | – | – | ≥ 49.5 | – |
| C#CCOc1cccc(-c2coc3cc(OCc4cnn(-c5ccccc5)c4)ccc3c2=O)c1 [SW 209087-1] | – | – | 49.5 | 49.5 | 0.106 | – | – |
| O=c1c(Cc2cnccn2)coc2cc(OCc3cnn(-c4ccccc4)c3)ccc12 [SW209207-1] | – | – | 49.5 | 49.5 | 26.6 | – | – |
